Experimental data from ChEMBL document CHEMBL1201862, “PubChem BioAssay data set” (2004).
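Five concentrations, 48 hours, 96-well plates. The concentration for 50% growth inhibition is given as GI50.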 Active and inactive are the calls of the source. No stated cut-off is given here; in the data, active = GI50 up to about 1.1 µM and inactive = higher.

Assays:
Test in all cases: growth of human tumour cells (NCI), 48 h
786-0 = system: 786-0
A498 = system: A498
A549 = system: A549
ACHN = system: ACHN
CAKI-1 = system: CAKI-1
CCRF-CEM = system: CCRF-CEM
COLO 205 = system: COLO 205
DLD-1 = system: DLD-1
DMS-273 = system: DMS-273
EKVX = system: EKVX
HCC 2998 = system: HCC 2998
HCT-116 = system: HCT-116
HCT-15 = system: HCT-15
HOP-18 = system: HOP-18
HOP-62 = system: HOP-62
HOP-92 = system: HOP-92
HT-29 = system: HT-29
IGROV-1 = system: IGROV-1
K562 = system: K562
KM-20L2 = system: KM-20L2
KM12 = system: KM12
LOX IMVI = system: LOX IMVI
LXFL 529 = system: LXFL 529
M14 = system: M14
M19-MEL = system: M19-MEL
MOLT-4 = system: MOLT-4
Malme-3M = system: Malme-3M
NCI-H226 = system: NCI-H226
NCI-H23 = system: NCI-H23
NCI-H460 = system: NCI-H460
NCI-H522 = system: NCI-H522
OVCAR-3 = system: OVCAR-3
OVCAR-4 = system: OVCAR-4
OVCAR-5 = system: OVCAR-5
OVCAR-8 = system: OVCAR-8
RPMI-8226 = system: RPMI-8226
RXF 393 = system: RXF 393
RXF 631 = system: RXF 631
SF-268 = system: SF-268
SF-295 = system: SF-295
SK-MEL-28 = system: SK-MEL-28
SK-MEL-2 = system: SK-MEL-2
SK-MEL-5 = system: SK-MEL-5
SK-OV-3 = system: SK-OV-3
SN12C = system: SN12C
SNB-19 = system: SNB-19
SNB-75 = system: SNB-75
SNB-78 = system: SNB-78
SR = system: SR
SW-620 = system: SW-620
TK-10 = system: TK-10
U-251 = system: U-251
UACC-257 = system: UACC-257
UACC-62 = system: UACC-62
UO-31 = system: UO-31
DMS-114 = system: DMS-114
HL-60 = system: HL-60
SF-539 = system: SF-539
XF498 = system: XF498

Cc1ccc(S(=O)(=O)OCCOCCOCCOCCOCCOS(=O)(=O)c2ccc(C)cc2)cc1
GI50 (786-0): 62.8 µM (inactive) | GI50 (A498): 44.4 µM (inactive) | GI50 (A549): 69.8 µM (inactive) | GI50 (ACHN): 36.6 µM (inactive) | GI50 (CAKI-1): 47.1 µM (inactive) | GI50 (CCRF-CEM): 21.4 µM (inactive) | GI50 (COLO 205): 17.2 µM (inactive) | GI50 (DLD-1): 60.8 µM (inactive) | GI50 (DMS-273): 28.6 µM (inactive) | GI50 (EKVX): 94.2 µM (inactive) | GI50 (HCC 2998): 41.6 µM (inactive) | GI50 (HCT-116): 52.5 µM (inactive) | GI50 (HCT-15): 55.6 µM | GI50 (HOP-18): 65.3 µM (inactive) | GI50 (HOP-62): 30.1 µM (inactive) | GI50 (HOP-92): 35.7 µM (inactive) | GI50 (HT-29): 28.3 µM (inactive) | GI50 (IGROV-1): 79.8 µM (inactive) | GI50 (K562): 31.7 µM (inactive) | GI50 (KM-20L2): 59.2 µM (inactive) | GI50 (KM12): 55.7 µM (inactive) | GI50 (LOX IMVI): 45.2 µM (inactive) | GI50 (LXFL 529): 33.7 µM (inactive) | GI50 (M14): 45.1 µM (inactive) | GI50 (M19-MEL): 30.3 µM (inactive) | GI50 (MOLT-4): 14.4 µM (inactive) | GI50 (Malme-3M): 73.6 µM (inactive) | GI50 (NCI-H226): 33.5 µM (inactive) | GI50 (NCI-H23): 21.3 µM (inactive) | GI50 (NCI-H460): 36.7 µM (inactive) | GI50 (NCI-H522): 23.7 µM (inactive) | GI50 (OVCAR-3): 21.7 µM (inactive) | GI50 (OVCAR-4): 51.3 µM (inactive) | GI50 (OVCAR-5): > 100 µM (inactive) | GI50 (OVCAR-8): 22.6 µM (inactive) | GI50 (RPMI-8226): 33.5 µM (inactive) | GI50 (RXF 393): > 100 µM (inactive) | GI50 (RXF 631): 27.1 µM (inactive) | GI50 (SF-268): > 100 µM (inactive) | GI50 (SF-295): 50.7 µM (inactive) | GI50 (SK-MEL-28): > 100 µM (inactive) | GI50 (SK-MEL-2): 41.5 µM (inactive) | GI50 (SK-MEL-5): 18.4 µM (inactive) | GI50 (SK-OV-3): > 100 µM (inactive) | GI50 (SN12C): 39.7 µM (inactive) | GI50 (SNB-19): > 100 µM (inactive) | GI50 (SNB-75): > 100 µM (inactive) | GI50 (SNB-78): 83.9 µM (inactive) | GI50 (SR): 54.3 µM (inactive) | GI50 (SW-620): 91.2 µM (inactive) | GI50 (TK-10): 36.7 µM (inactive) | GI50 (U-251): 58.3 µM (inactive) | GI50 (UACC-257): 25 µM (inactive) | GI50 (UACC-62): 61.4 µM (inactive) | GI50 (UO-31): 28.8 µM (inactive)

CC(=O)OCC1=CC2CCC3C(C)(CCC[C@]3(C)COC(C)=O)C23CC[C@H]1C3 (stereo partly drawn)
GI50 (786-0): 57.3 µM (inactive) | GI50 (A498): > 100 µM (inactive) | GI50 (A549): 64 µM (inactive) | GI50 (ACHN): 73.1 µM (inactive) | GI50 (CAKI-1): 39.6 µM (inactive) | GI50 (CCRF-CEM): 27.9 µM (inactive) | GI50 (COLO 205): 24 µM (inactive) | GI50 (DLD-1): 51.6 µM (inactive) | GI50 (DMS-114): 12.9 µM (inactive) | GI50 (DMS-273): 29.6 µM (inactive) | GI50 (EKVX): 83 µM (inactive) | GI50 (HCC 2998): 22.3 µM (inactive) | GI50 (HCT-116): 38.8 µM (inactive) | GI50 (HCT-15): > 100 µM | GI50 (HL-60): 26 µM (inactive) | GI50 (HOP-18): > 100 µM (inactive) | GI50 (HOP-62): 75.9 µM (inactive) | GI50 (HOP-92): 27.8 µM (inactive) | GI50 (HT-29): 35.8 µM (inactive) | GI50 (IGROV-1): 99.3 µM (inactive) | GI50 (K562): 27.2 µM (inactive) | GI50 (KM-20L2): 41 µM (inactive) | GI50 (KM12): 33.7 µM (inactive) | GI50 (LOX IMVI): 25 µM (inactive) | GI50 (LXFL 529): 29.2 µM (inactive) | GI50 (M14): 36 µM (inactive) | GI50 (M19-MEL): 34.5 µM (inactive) | GI50 (MOLT-4): 20.1 µM (inactive) | GI50 (Malme-3M): 52.8 µM (inactive) | GI50 (NCI-H226): 68.1 µM (inactive) | GI50 (NCI-H23): 33.9 µM (inactive) | GI50 (NCI-H460): > 100 µM (inactive) | GI50 (NCI-H522): 18.8 µM (inactive) | GI50 (OVCAR-3): 31.9 µM (inactive) | GI50 (OVCAR-4): 30.1 µM (inactive) | GI50 (OVCAR-5): > 100 µM (inactive) | GI50 (OVCAR-8): 53.7 µM (inactive) | GI50 (RPMI-8226): 21.6 µM (inactive) | GI50 (RXF 393): 46.5 µM (inactive) | GI50 (RXF 631): > 100 µM (inactive) | GI50 (SF-268): > 100 µM (inactive) | GI50 (SF-295): 37.3 µM (inactive) | GI50 (SF-539): 40.3 µM (inactive) | GI50 (SK-MEL-28): > 100 µM (inactive) | GI50 (SK-MEL-2): 33.8 µM (inactive) | GI50 (SK-MEL-5): 25.5 µM (inactive) | GI50 (SK-OV-3): 64.7 µM (inactive) | GI50 (SN12C): 45.2 µM (inactive) | GI50 (SNB-19): 68.4 µM (inactive) | GI50 (SNB-75): 34.9 µM (inactive) | GI50 (SR): 27.5 µM (inactive) | GI50 (SW-620): 56.6 µM (inactive) | GI50 (TK-10): > 100 µM (inactive) | GI50 (U-251): 27.9 µM (inactive) | GI50 (UACC-257): 37.7 µM (inactive) | GI50 (UACC-62): 36.1 µM (inactive) | GI50 (UO-31): 53.7 µM (inactive) | GI50 (XF498): 33.8 µM (inactive)
